The subject of one data set is CYP2D. As to the kind of experiment: IC50 of vortioxetine on CYP2D (dextromethorphan) in RLMs. The data set is classed as in vitro ADME. As to conditions: rat, rat liver microsomes, probe dextromethorphan. The method, then: (§1) The components of the incubation system were as follows: 0.20 mg/mL HLMs or 0.20 mg/mL RLMs, 0.1 M Tris-HCl, vortioxetine, and the probe substrates of each enzyme. In the study of Km’s (Michaelis–Menten constant) experiment, midazolam (1, 2, 5, 10, 20, 50 and 100 μM in HLMs and RLMs) corresponded to CYP3A4/3A; bupropion (10, 20, 50, 100, 200, 500, 1,000 and 2000 μM in HLMs; 1, 2, 5, 10, 20, 50, 100 and 200 μM in RLMs) corresponded to CYP2B6/2B; amodiaquine (5, 10, 20, 50, 100 and 200 μM in HLMs; 10, 20, 50, 100, 200, 500 μM in RLMs) corresponded to CYP2C8/CYP2C-1; losartan (1, 2, 5, 10, 20, 50, 100, 200 μM in HLMs; 10, 20, 50, 100, 200, 500 and 1,000 μM in RLMs) corresponded to CYP2C9/CYP2C-2; mephenytoin (20, 50, 100, 200, 500 and 1,000 μM in HLMs; 5, 10, 20, 50, 100, 200, 500 and 1,000 μM in RLMs) corresponded to CYP2C19/CYP2C-3; and dextromethorphan (1, 2, 5, 10, 20, 50 and 100 μM in HLMs and RLMs) corresponded to CYP2D6/CYP2D. […]
(§2) All experiments results were detected by UPLC-MS/MS, which equipped with a Waters Acquity UPLC system (Milford, MA, United States) and a Waters Xevo TQ-S triple quadrupole tandem mass spectrometer with an electrospray ionization source (Milford, MA, United States). […]
(§3) IC50 values and enzyme kinetic parameters were calculated by Graphpad Prism 6.0 (GraphPad software Inc., CA, United States). […] Data for each experiment were expressed as mean ± SD (n = 3).

The subject of a further data set is CYP2B. Briefly: Reversible inhibition kinetics (Lineweaver-Burk), CYP2B in RLMs. Format: in vitro ADME, rat. The method, then: as §1, §2, §3
The next data set deals with T1, CYP2C8 (Homo sapiens, UniProt P10632).
T1 sequence (P10632 1-490): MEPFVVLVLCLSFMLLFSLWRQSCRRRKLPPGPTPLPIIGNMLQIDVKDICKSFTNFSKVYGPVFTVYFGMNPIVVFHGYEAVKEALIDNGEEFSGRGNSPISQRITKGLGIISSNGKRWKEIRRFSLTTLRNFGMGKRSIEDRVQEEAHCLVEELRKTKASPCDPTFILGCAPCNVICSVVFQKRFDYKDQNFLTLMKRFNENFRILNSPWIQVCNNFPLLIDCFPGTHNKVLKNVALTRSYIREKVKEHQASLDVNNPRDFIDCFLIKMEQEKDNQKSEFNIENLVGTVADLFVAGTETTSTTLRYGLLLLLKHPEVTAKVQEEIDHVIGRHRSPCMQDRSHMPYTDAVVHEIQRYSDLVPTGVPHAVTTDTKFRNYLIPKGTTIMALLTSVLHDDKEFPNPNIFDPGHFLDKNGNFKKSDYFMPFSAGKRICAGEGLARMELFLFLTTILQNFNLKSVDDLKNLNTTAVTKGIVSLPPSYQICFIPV
Briefly: IC50-shift experiment, CYP2C8 in HLMs. The data set is classed as in vitro ADME. Also noted: 0.20 mg/mL HLMs or 0.20 mg/mL RLMs; from tissue; host or cells: human liver microsomes. As to conditions: for IC50: amodiaquine 3 μM. The method, then:
as §1, with “CYP2D6/CYP2D. After 5.0 min of preincubation in the shaking water bath, the reaction was started with the addition of 1.0 mM NADPH. The incubated temperature at 37°C for 30 min. After the incubation, the enzyme reaction was stopped by cooling at −80°C, and 200 μL of acetonitrile and 20 μL of internal standard diazepam (200 ng/mL) were added for protein precipitation.” for “CYP2D6/CYP2D.”
IC50-shift was used to investigate whether the drug produced time-dependent inhibition (TDI) of the enzyme. […] During the experiment, the individual substrates midazolam (4 μM), bupropion (40 μM), amodiaquine (3 μM), losartan (8 μM), mephenytoin (90 μM), and dextromethorphan (10 μM) were determined with vortioxetine IC50-shift in HLMs. […]
as §2, §3

Results on one molecule are retold here after article PMC10544575, “Inhibitory mechanism of vortioxetine on CYP450 enzymes in human and rat liver microsomes” (Frontiers in Pharmacology, 2023).

Where two headings read alike, the source gives them in different places. Bounds are passed on as bounds.

For `Cc1ccc(Sc2ccccc2N2CCNCC2)c(C)c1` [vortioxetine], the IC50 at 30 min in the data set with CYP2D (RLMs 0.20 mg/mL, dextromethorphan at Km, 37°C, 30 min, read-out: IC50) is 15.7 µM; in the data set on CYP2D (inhibitory effect (strength judged by IC50), RLMs), more than 10 µM. Besides, the Inhibition type entry in the data set with CYP2B (bupropion, Lineweaver-Burk plot) is given as “competitive inhibition”. Besides, in the data set with CYP2B (rat, rat liver microsomes, probe bupropion), the Ki at 30 min is 2.87 µM. In addition, the IC50 was 18.7 µM on CYP2C8 (30 min preincubation with 1.0 mM NADPH) and 18.2 µM at CYP2C8 (30 min preincubation without NADPH). The IC50 shift at 30 min on CYP2C8 (human, human liver microsomes, probe amodiaquine (3 μM), ratio IC50 (−) NADPH to IC50 (+) NADPH, read-out: IC50 fold shift) worked out at 0.97.
